What was measured:
[1] = Blood-brain barrier penetration (brain tissue to plasma concentration ratio); assay type: in vivo; conditions: ratio of concentration in brain tissue to plasma; rats or mice, four hours after dosing
Description: Four hours after dosing, rats or mice were sacrificed, blood and brain tissue were collected and the concentration of the test compound was analyzed. Brain permeation is defined as the ratio of the concentration of the compound in the brain tissue to the concentration in the plasma. P-glycoprotein and BCRP (Breast Cancer Resistance Protein) are the blood-brain barrier efflux proteins, the P-glycoprotein substrate (Efflux ratio>1.5) and/or BCRP substrate (Efflux ratio>1.5) is out of the brain.

P-glycoprotein = P-glycoprotein (Homo sapiens, UniProt P08183); assay: P-glycoprotein efflux substrate; assay type: in vitro ADME; conditions: not told
BCRP = target: T1, BCRP (Homo sapiens, UniProt Q9UNQ0); assay: BCRP efflux substrate; assay type: in vitro ADME; conditions: not told
T1 sequence (Q9UNQ0 1-655): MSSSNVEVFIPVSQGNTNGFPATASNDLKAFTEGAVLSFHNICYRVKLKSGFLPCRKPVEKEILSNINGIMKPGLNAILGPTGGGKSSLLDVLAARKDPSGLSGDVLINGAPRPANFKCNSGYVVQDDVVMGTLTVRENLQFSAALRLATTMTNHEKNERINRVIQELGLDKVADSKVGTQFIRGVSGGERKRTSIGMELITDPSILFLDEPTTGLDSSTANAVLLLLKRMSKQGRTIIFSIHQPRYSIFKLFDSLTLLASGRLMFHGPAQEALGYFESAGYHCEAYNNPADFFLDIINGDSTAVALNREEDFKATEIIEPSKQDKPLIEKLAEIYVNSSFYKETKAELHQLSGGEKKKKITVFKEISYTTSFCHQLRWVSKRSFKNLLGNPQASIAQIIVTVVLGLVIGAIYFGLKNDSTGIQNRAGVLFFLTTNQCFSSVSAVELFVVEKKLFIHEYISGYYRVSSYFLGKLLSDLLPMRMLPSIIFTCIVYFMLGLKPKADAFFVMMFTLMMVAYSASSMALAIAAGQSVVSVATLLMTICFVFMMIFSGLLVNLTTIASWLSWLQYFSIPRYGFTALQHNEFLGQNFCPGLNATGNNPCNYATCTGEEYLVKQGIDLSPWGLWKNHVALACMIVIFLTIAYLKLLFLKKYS

P-glycoprotein, sequence (P08183 whole entry): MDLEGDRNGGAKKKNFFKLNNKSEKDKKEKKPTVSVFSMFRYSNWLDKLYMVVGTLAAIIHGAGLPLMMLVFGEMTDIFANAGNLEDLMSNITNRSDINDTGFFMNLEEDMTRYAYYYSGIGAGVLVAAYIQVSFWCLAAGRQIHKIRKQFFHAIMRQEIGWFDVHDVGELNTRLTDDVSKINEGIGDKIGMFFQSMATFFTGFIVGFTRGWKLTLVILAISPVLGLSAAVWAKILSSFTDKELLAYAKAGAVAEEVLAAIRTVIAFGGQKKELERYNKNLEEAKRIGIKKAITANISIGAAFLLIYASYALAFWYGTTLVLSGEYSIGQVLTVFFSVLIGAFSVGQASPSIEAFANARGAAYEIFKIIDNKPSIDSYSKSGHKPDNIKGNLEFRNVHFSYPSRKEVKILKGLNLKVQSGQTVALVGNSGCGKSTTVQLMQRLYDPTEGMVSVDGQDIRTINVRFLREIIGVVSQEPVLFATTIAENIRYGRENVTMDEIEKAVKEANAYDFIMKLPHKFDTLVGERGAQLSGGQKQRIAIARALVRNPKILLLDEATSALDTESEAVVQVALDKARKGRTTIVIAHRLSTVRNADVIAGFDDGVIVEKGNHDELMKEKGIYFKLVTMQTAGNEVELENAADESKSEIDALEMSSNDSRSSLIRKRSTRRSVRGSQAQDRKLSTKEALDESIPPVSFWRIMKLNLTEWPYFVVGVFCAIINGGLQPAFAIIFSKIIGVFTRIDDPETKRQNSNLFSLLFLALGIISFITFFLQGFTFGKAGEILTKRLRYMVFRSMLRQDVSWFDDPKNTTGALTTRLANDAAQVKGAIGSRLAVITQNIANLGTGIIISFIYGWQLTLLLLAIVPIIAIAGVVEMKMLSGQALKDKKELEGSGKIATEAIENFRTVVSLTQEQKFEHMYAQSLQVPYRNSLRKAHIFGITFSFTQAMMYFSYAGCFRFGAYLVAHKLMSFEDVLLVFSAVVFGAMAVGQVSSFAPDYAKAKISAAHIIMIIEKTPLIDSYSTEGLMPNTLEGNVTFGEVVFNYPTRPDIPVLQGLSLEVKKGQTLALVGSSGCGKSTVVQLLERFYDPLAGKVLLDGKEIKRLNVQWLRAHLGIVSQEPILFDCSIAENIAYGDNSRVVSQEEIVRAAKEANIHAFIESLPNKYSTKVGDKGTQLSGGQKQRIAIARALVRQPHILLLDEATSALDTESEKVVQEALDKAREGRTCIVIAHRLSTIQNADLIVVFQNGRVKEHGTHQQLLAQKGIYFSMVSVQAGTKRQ

Compound	Kp at 4 h [1]	efflux ratio (P-glycoprotein)	efflux ratio (BCRP)
COc1ccc(-c2cc3c(cc2F)ncc2c3n([C@H]3CCN(C)CC3(F)F)c(=O)n2C)cn1 [Compound 32, (S)-1-(3,3-difluoro-1-methylpiperidin-4-yl)-7-fluoro-8-(6-methoxypyridin-3-yl)-3-methyl-1,3-dihydro-2H-imidazo[4,5-c]quinolin-2-one]	> 0.3	< 1	< 1
CC(C)Oc1ccc(-c2ccc3ncc4c(c3c2)n([C@H]2CCN(C)CC2(F)F)c(=O)n4C)cn1 [Compound 34, (S)-1-(3,3-difluoro-1-methylpiperidin-4-yl)-8-(6-isopropoxypyridin-3-yl)-3-methyl-1,3-dihydro-2H-imidazo[4,5-c]quinolin-2-one]	> 0.3	< 1	< 1
CN1CC[C@H](n2c(=O)n(C)c3cnc4ccc(-c5ccc(N(C)C)nc5)cc4c32)C(F)(F)C1 [Compound 35, (S)-1-(3,3-difluoro-1-methylpiperidin-4-yl)-8-(6-(dimethylamino)pyridin-3-yl)-3-methyl-1,3-dihydro-2H-imidazo[4,5-c]quinolin-2-one]	> 0.3	< 1	< 1
CN1CC[C@H](n2c(=O)n(C)c3cnc4ccc(-c5ccc(OC6CC6)nc5)cc4c32)C(F)(F)C1 [Compound 37, (S)-8-(6-cyclopropoxypyridin-3-yl)-1-(3,3-difluoro-1-methylpiperidin-4-yl)-3-methyl-1,3-dihydro-2H-imidazo[4,5-c]quinolin-2-one]	> 0.3	< 1	< 1
CN1CC[C@H](n2c(=O)n(C)c3cnc4ccc(-c5ccc(N6CC(N(C)C)C6)nc5)cc4c32)C(F)(F)C1 [Compound 38, (S)-1-(3,3-difluoro-1-methylpiperidin-4-yl)-8-(6-(3-(dimethylamino)azetidin-1-yl)pyridin-3-yl)-3-methyl-1,3-dihydro-2H-imidazo[4,5-c]quinolin-2-one]	> 0.3	< 1	< 1
CN1CC[C@H](n2c(=O)n(C)c3cnc4ccc(-c5ccc(N6C[C@@H]7[C@H]6CCN7C)nc5)cc4c32)C(F)(F)C1 [Compound 40]	> 0.3	< 1	< 1
CN1CC[C@H](n2c(=O)n(C)c3cnc4ccc(-c5ccc(N6C[C@H]7[C@@H]6CCN7C)nc5)cc4c32)C(F)(F)C1 [Compound 41]	> 0.3	< 1	< 1
